{"source": "patent US9051265B2", "about": "“N-benzylindole modulators of PPARG” (The Scripps Research Institute, priority 2011, dated 2015)", "system": "PPARG (murine PPARg2 or full-length human PPARg)", "assay": "Cell-based PPRE-luciferase transactivation assay in COS-1 cells", "data": [{"smiles": "CN(CCOc1ccc(CC2SC(=O)NC2=O)cc1)c1ccccn1", "note": "(stereo not shown) [rosiglitazone]", "values": [{"measurement": "activation of the PPRE reporter", "value": "about 5 fold"}]}]}
